Test results: patent US20240150339A1, “Compounds and Their Use as PDE4 Activators” (Mironid Limited, priority 2021, published 2024)

Legend:
PDE4D5 = molecular target: T1, PDE4D5 (Homo sapiens, UniProt Q08499); assay: PDE assay, activation of full-length human PDE4D5 long form ([3H]cAMP radio-assay); type: biochemical; conditions: 30 μM test compound; mean % increase in counts over basal activity
T1 construct: Using Full-Length Human PDE4 Isoforms: Long Forms PDE4D5, PDE4C3, PDE4B1 and Short Form PDE4B2; made in house; cytosol fraction of the cell lysate, not purified
T1 sequence (Q08499 1-745 isoform Q08499-6): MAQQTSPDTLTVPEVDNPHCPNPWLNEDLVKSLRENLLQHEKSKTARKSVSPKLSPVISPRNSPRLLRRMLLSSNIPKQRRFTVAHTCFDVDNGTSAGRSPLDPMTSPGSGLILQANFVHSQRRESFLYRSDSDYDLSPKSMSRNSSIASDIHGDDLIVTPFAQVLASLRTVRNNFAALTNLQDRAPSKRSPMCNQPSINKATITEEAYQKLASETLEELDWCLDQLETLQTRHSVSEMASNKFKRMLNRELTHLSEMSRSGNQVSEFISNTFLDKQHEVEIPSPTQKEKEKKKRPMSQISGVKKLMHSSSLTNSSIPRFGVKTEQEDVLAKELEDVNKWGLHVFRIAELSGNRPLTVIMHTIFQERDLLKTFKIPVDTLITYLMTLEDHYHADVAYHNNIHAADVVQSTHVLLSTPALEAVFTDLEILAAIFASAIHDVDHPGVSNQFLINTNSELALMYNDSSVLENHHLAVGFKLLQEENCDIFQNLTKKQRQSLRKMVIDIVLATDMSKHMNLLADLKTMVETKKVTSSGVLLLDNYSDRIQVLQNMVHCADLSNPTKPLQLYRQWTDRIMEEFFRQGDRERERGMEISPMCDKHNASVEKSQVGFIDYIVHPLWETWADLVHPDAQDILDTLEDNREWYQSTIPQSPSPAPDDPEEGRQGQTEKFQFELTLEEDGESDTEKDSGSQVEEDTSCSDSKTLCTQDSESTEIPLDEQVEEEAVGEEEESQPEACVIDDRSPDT
Procedure, shortened: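 Cytosol (100,000 g) from HEK293 cells overexpressing full-length human PDE4 was preincubated with compound for 15 min at room temperature in 10 mM Tris/5 mM MgCl2. Reaction ran with 1 μM [3H]cAMP for 10 min at 30° C, then snake venom conversion, Dowex separation and scintillation counting; activity reported as % increase.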

m-IMCD3 cells = assay: Inhibition of PGE2-stimulated in vitro cyst formation in 3D culture of m-IMCD3 cells; type: cell-based, mouse; conditions: Mus musculus, mIMCD3, 144 h; 10 μM test compound; mean cyst area (%) compared to 100% for (DMSO + PGE2) and 0% for DMSO control; 100 nM PGE2; 6 days; read-out: % Cyst area after incubation with 10 μM test compound
Procedure, shortened: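 Mouse m-IMCD3 cells grown in 3D collagen I/Matrigel gels. From 18-24 h after plating, compound (0.1% DMSO) plus 100 nM PGE2 were added and replenished at 2-3 days. After 6 days, imaging gave mean cyst area, scaled to 100% for DMSO+PGE2 and 0% for DMSO alone.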

`Cc1ncccc1-c1nc2ccc(C(=O)N[C@H]3CCOc4ccccc43)cc2s1` [Example 7, (S)-N-(chroman-4-yl)-2-(2-methylpyridin-3-yl)benzo[d]thiazole-6-carboxamide] showed an activation at 30 µM (PDE4D5) of 109% and an activity at 10 µM (m-IMCD3 cells) of -7%.
